Test results reported in US10842779B2, “Heterocyclic compounds and their use in preventing or treating bacterial infections” (priority 2015, dated 2020).
Like-named read-outs stand apart in the source and are kept apart here.

Legend:
Test in all cases: MIC of compounds alone, broth microdilution
Format in all cases: cell-based
C. freundii = conditions: Citrobacter freundii
Method: (§1) Method 2: MIC of Compounds and Synergy with Ceftazidime Against Bacterial Isolates (Table 2 and 3)
(§2) Compounds of the present invention were assessed against genotyped bacterial strains alone or in combination with the β-lactam ceftazidime. In the assays, MICs of said compounds, or of ceftazidime at fixed concentrations of said compounds were determined by the broth microdilution method according to the Clinical Laboratory Standards Institute (CLSI—M7-A7). Briefly, compounds alone according to the invention were prepared in DMSO and spotted (2 μL each) on sterile polystyrene plates (Corning, 3788). Compounds and ceftazidime dilutions were prepared in DMSO and spotted (1 μL each) on sterile polystyrene plates (Corning, 3788). Log phase bacterial suspensions were adjusted to a final density of 5×10^5 cfu/mL in cation-adjusted Mueller-Hinton broth (Beckton-Dickinson) and added to each well (98 μL). Microplates were incubated for 16-20 h at 35° C. in ambient air. The MIC of the compounds was defined as the lowest concentration of said compounds that prevented bacterial growth as read by visual inspection. The MIC of ceftazidime at each compound concentration was defined as the lowest concentration of ceftazidime that prevented bacterial growth as read by visual inspection.

M. morganii = conditions: Morganella morganii, MMO 200321, beta-lactamases TEM-1, CTX-M-15 OXA-1
Method: as §1, §2

P. mirabilis = conditions: Proteus mirabilis, PMI UFR82, beta-lactamases CMY-2
Method: as §1, §2

S. marcescens = conditions: Serratia marcescens, SMA UFR30, beta-lactamases OXA-405
Method: as §1, §2

E. cloacae = conditions: Enterobacter cloacae
Method: as §1, §2

C. murliniae = system: C. murliniae
Method: as §1, §2

K. pneumoniae = conditions: Klebsiella pneumoniae
Method: as §1, §2

K. oxytoca = conditions: Klebsiella oxytoca
Method: as §1, §2

E. coli = conditions: Escherichia coli
Method: as §1, §2

P. aeruginosa = conditions: Pseudomonas aeruginosa
Method: as §1, §2

E. aerogenes = conditions: Klebsiella aerogenes
Method: as §1, §2

For `CC(C)(O/N=C(\C(=O)N[C@@H]1C(=O)N2C(C(=O)[O-])=C(C[n+]3ccccc3)CS[C@H]12)c1csc(N)n1)C(=O)O` [CAZ, ceftazidime, reference compound], the MIC (C. freundii) was greater than 128 µg/mL, the MIC (C. freundii; alone, CFR UFR10, beta-lactamases OXA-48, read-out: MIC) was 64 µg/mL and the MIC (C. freundii; alone, CFR UFR11, beta-lactamases TEM-1 OXA-1 OXA-48, read-out: MIC) was 8 µg/mL. For the same molecule, the MIC (M. morganii) was 16 µg/mL, the MIC (P. mirabilis) was 4 µg/mL and the MIC (S. marcescens) was 16 µg/mL. For the same molecule, the MIC (E. cloacae; ECL 2185D, beta-lactamases OXA-163) was 128 µg/mL, the MIC (E. cloacae; ECL 190310, beta-lactamases AmpC) was greater than 128 µg/mL and the MIC (E. cloacae; ECL 190408, beta-lactamases TEM-1, CTX-M-15 OXA-1) was 128 µg/mL. It also gave an MIC (E. cloacae; ECL 200138, beta-lactamases AmpC) greater than 128 µg/mL, an MIC (E. cloacae; ECL 200322, beta-lactamases TEM-1, CTX-M-15 OXA-1) greater than 128 µg/mL and an MIC (E. cloacae; ECL 260033, beta-lactamases AmpC) greater than 128 µg/mL. The MIC (E. cloacae; ECL 260253, beta-lactamases TEM-1 KPC-3) was greater than 128 µg/mL, the MIC (E. cloacae; ECL 260323, beta-lactamases AmpC) was greater than 128 µg/mL and the MIC (E. cloacae; ECL 260508, beta-lactamases TEM-1, CTX-M-15, read-out: MIC) was 64 µg/mL. For the same molecule, the MIC (E. cloacae; ECL HAN, beta-lactamases OXA-35) was greater than 128 µg/mL, the MIC (E. cloacae; ECL NEM146383, beta-lactamases AmpC) was greater than 128 µg/mL and the MIC (E. cloacae; ECL P99, beta-lactamases AmpC) was 128 µg/mL. It also gave an MIC (E. cloacae; ECL UFR12, beta-lactamases CTX-M-9 OXA-48, read-out: MIC) of 2 µg/mL, an MIC (E. cloacae; ECL UFR13, beta-lactamases TEM-1, SHV-12, CTX-M-9 OXA-48) greater than 128 µg/mL and an MIC (E. cloacae; ECL UFR14, beta-lactamases TEM-1, SHV-12, CTX-M-15 DHA-1 OXA-1 OXA-48) greater than 128 µg/mL. The MIC (E. cloacae; ECL UFR38, beta-lactamases CTX-M-15 NDM-1) was greater than 128 µg/mL, the MIC (E. cloacae; ECL UFR51, beta-lactamases SHV-12 IMP-8) was greater than 128 µg/mL and the MIC (E. cloacae; ECL UFR60, beta-lactamases TEM-1, CTX-M-15 KPC-2) was greater than 128 µg/mL. It also gave an MIC (E. cloacae; ECL UFR70, beta-lactamases TEM-1, CTX-M-15 CMY-2 OXA-1) greater than 128 µg/mL, an MIC (E. cloacae; ECL UFR84, beta-lactamases TEM-1 AmpC OXA-1) greater than 128 µg/mL and an MIC (E. cloacae; ECL UFR85, beta-lactamases TEM-1, CTX-M-15 AmpC) greater than 128 µg/mL. It also gave an MIC (C. murliniae) greater than 128 µg/mL, an MIC (K. pneumoniae; BAA1898, alone, KPN BAA-1898, beta-lactamases TEM-1, SHV-11, SHV-12 KPC-2) of 256 µg/mL and an MIC (K. pneumoniae; alone, KPN 6299, beta-lactamases TEM-1, SHV-11 OXA-163) of 256 µg/mL. For the same molecule, the MIC (K. pneumoniae; alone, KPN 110376, beta-lactamases TEM-1, SHV-1, CTX-M-15 OXA-1 OXA-48) was 128 µg/mL, the MIC (K. pneumoniae; alone, KPN 131119, beta-lactamases TEM-1, SHV-11, CTX-M-15 OXA-1 OXA-48) was greater than 128 µg/mL and the MIC (K. pneumoniae; alone, KPN 160143, beta-lactamases TEM-1, SHV-1, CTX-M-15 KPC-2 OXA-1) was 128 µg/mL. For the same molecule, the MIC (K. pneumoniae; alone, KPN 190128, beta-lactamases TEM-1, SHV-32, CTX-M-15 OXA-1) was greater than 128 µg/mL, the MIC (K. pneumoniae; alone, KPN 190270, beta-lactamases TEM-1, SHV-76, CTX-M-15 OXA-1) was greater than 128 µg/mL and the MIC (K. pneumoniae; alone, KPN 190425, beta-lactamases TEM-1, SHV-1, CTX-M-15 OXA-1) was greater than 128 µg/mL. For the same molecule, the MIC (K. pneumoniae; alone, KPN 190551, beta-lactamases TEM-1, SHV-1, CTX-M-15 OXA-1, read-out: MIC) was 64 µg/mL, the MIC (K. pneumoniae; alone, KPN 200047, beta-lactamases TEM-1, SHV-32, CTX-M-15 OXA-1) was 128 µg/mL and the MIC (K. pneumoniae; alone, KPN 200327, beta-lactamases TEM-1, SHV-1, CTX-M-15 OXA-1, read-out: MIC) was 32 µg/mL. It also gave an MIC (K. pneumoniae; alone, KPN 260251, beta-lactamases TEM-1, SHV-11, SHV-12, CTX-M-15 KPC-2) greater than 128 µg/mL, an MIC (K. pneumoniae; alone, KPN 260252, beta-lactamases TEM-1, SHV-11 KPC-3) greater than 128 µg/mL and an MIC (K. pneumoniae; alone, KPN 260376, beta-lactamases SHV-1, SHV-49 OXA-1) of 128 µg/mL. It also gave an MIC (K. pneumoniae; alone, KPN 270077, beta-lactamases TEM-1, SHV-1, CTX-M-15) of 128 µg/mL, an MIC (K. pneumoniae; alone, KPN 700603, beta-lactamases SHV-18 OXA-2, read-out: MIC) of 64 µg/mL and an MIC (K. pneumoniae; alone, KPN 6122012, beta-lactamases SHV-1 NDM-1) greater than 128 µg/mL. For the same molecule, the MIC (K. pneumoniae; alone, KPN ARA, beta-lactamases TEM-1, SHV-11, CTX-M-15 OXA-1 OXA-48) was greater than 128 µg/mL, the MIC (K. pneumoniae; alone, KPN LIB, beta-lactamases SHV-11 OXA-48, read-out: MIC) was 0.25 µg/mL and the MIC (K. pneumoniae; alone, KPN UFR22_O, beta-lactamases TEM-1, SHV-1 OXA-48, read-out: MIC) was 2 µg/mL. For the same molecule, the MIC (K. pneumoniae; alone, KPN UFR24, beta-lactamases TEM-1, SHV-2, SHV-11 OXA-1 OXA-48 OXA-47) was greater than 128 µg/mL, the MIC (K. pneumoniae; alone, KPN UFR25, beta-lactamases TEM-1, SHV-11, CTX-M-15 OXA-162) was 128 µg/mL and the MIC (K. pneumoniae; alone, KPN UFR27, beta-lactamases TEM-1, SHV-28, CTX-M-15 OXA-204) was greater than 128 µg/mL. The MIC (K. pneumoniae; alone, KPN UFR28, beta-lactamases TEM-1, SHV-1, CTX-M-15 OXA-1 OXA-232) was 128 µg/mL, the MIC (K. pneumoniae; alone, KPN UFR42, beta-lactamases SHV-2, CTX-M-15 OXA-1 OXA-181 NDM-1) was greater than 128 µg/mL and the MIC (K. pneumoniae; alone, KPN UFR43, beta-lactamases SHV-11, CTX-M-15 CMY-2 OXA-1 NDM-1) was greater than 128 µg/mL. For the same molecule, the MIC (K. pneumoniae; alone, KPN UFR53, beta-lactamases TEM-1 IMP-1) was greater than 128 µg/mL, the MIC (K. pneumoniae; alone, KPN UFR65, beta-lactamases TEM-1, SHV-11 KPC-2) was 128 µg/mL and the MIC (K. pneumoniae; alone, KPN UFR66, beta-lactamases TEM-1, SHV-11, CTX-M-15 KPC-2) was greater than 128 µg/mL. It also gave an MIC (K. pneumoniae; alone, KPN UFR68, beta-lactamases TEM-1, SHV-11, CTX-M-15 KPC-3) greater than 128 µg/mL, an MIC (K. pneumoniae; alone, KPN UFR77, beta-lactamases CMY-2, read-out: MIC) of 64 µg/mL and an MIC (K. pneumoniae; alone, KPN UFR79, beta-lactamases DHA-1 OXA-1, read-out: MIC) of 32 µg/mL. The MIC (K. pneumoniae; alone, KPN UFR80, beta-lactamases SHV-11 DHA-1 OXA-1, read-out: MIC) was 0.5 µg/mL, the MIC (K. pneumoniae; alone, KPN UFR81, beta-lactamases TEM-1, SHV-1 DHA-1 OXA-48) was 128 µg/mL and the MIC (K. oxytoca) was 128 µg/mL. For the same molecule, the MIC (E. coli; ECO 180070, beta-lactamases TEM-1, CTX-M-15, read-out: MIC) was 64 µg/mL, the MIC (E. coli; ECO 190314, beta-lactamases CTX-M-1, read-out: MIC) was 8 µg/mL and the MIC (E. coli; ECO 190317, beta-lactamases TEM-1, SHV-12, CTX-M-15 OXA-1) was 128 µg/mL. For the same molecule, the MIC (E. coli; ECO 190457, beta-lactamases CTX-M-15 OXA-1, read-out: MIC) was 16 µg/mL, the MIC (E. coli; ECO 190549, beta-lactamases CTX-M-1, read-out: MIC) was 8 µg/mL and the MIC (E. coli; ECO 200159, beta-lactamases TEM-1, CTX-M-14, read-out: MIC) was 2 µg/mL. The MIC (E. coli; ECO 200259, beta-lactamases CTX-M-14, read-out: MIC) was 4 µg/mL, the MIC (E. coli; ECO 200344, beta-lactamases CTX-M-1, read-out: MIC) was 16 µg/mL and the MIC (E. coli; ECO 260096, beta-lactamases CTX-M-132) was 128 µg/mL. It also gave an MIC (E. coli; ECO 260304, beta-lactamases CTX-M-15, read-out: MIC) of 16 µg/mL, an MIC (E. coli; ECO 260508, beta-lactamases TEM-1, CTX-M-15 OXA-1) of 128 µg/mL and an MIC (E. coli; ECO UFR16, beta-lactamases TEM-1, CTX-M-15 OXA-1 OXA-48, read-out: MIC) of 64 µg/mL. The MIC (E. coli; ECO UFR17, beta-lactamases TEM-1, CTX-M-15 CMY-2 OXA-1 OXA-181) was greater than 128 µg/mL, the MIC (E. coli; ECO UFR18, beta-lactamases CTX-M-15 OXA-204) was greater than 128 µg/mL and the MIC (E. coli; ECO UFR19, beta-lactamases CTX-M-15 CMY-2 OXA-1 OXA-204) was 128 µg/mL. For the same molecule, the MIC (E. coli; ECO UFR32, beta-lactamases TEM-1, VEB-1 OXA-10) was greater than 128 µg/mL, the MIC (E. coli; ECO UFR39, beta-lactamases CTX-M-15 NDM-1) was greater than 128 µg/mL and the MIC (E. coli; ECO UFR41, beta-lactamases TEM-1, CTX-M-15 CMY-2 OXA-1 NDM-4) was greater than 128 µg/mL. For the same molecule, the MIC (E. coli; ECO UFR45, beta-lactamases TEM-1 CMY-4 OXA-1 OXA-48 VIM-1, read-out: MIC) was 2 µg/mL, the MIC (E. coli; ECO UFR52, beta-lactamases TEM-1, SHV-12 IMP-8) was greater than 128 µg/mL and the MIC (E. coli; ECO UFR61O, beta-lactamases TEM-1 KPC-2) was 128 µg/mL. The MIC (E. coli; ECO UFR62, beta-lactamases TEM-1, CTX-M-9 KPC-2, read-out: MIC) was 16 µg/mL, the MIC (E. coli; ECO UFR74, beta-lactamases SHV-1 DHA-1) was 128 µg/mL and the MIC (P. aeruginosa) was 128 µg/mL. The MIC (P. aeruginosa; CIP107051) was 256 µg/mL and the MIC (E. aerogenes) was 128 µg/mL.
